Where a name gives a salt, the structure may show the parent alone.
Target: T1, Full-length glucokinase (beta cell isoform) (Homo sapiens, UniProt P35557)
T1 construct: Full-length glucokinase (beta cell isoform) was His-tagged at N-terminus; His tag (N); made in house
T1 sequence (P35557 1-465): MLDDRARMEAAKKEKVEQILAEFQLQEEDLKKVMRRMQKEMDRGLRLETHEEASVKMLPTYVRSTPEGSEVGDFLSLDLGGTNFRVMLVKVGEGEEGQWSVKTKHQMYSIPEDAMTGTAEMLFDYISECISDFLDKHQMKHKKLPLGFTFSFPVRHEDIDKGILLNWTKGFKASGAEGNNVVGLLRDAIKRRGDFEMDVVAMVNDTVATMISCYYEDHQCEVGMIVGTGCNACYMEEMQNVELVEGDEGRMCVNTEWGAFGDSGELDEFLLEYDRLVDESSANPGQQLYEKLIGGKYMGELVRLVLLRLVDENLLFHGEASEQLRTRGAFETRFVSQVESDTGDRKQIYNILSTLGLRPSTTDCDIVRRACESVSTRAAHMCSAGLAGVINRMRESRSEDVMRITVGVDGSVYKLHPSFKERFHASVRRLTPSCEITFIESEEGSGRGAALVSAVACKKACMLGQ
Experiment: Glucokinase activation assay (PK/LDH-coupled, NADH depletion at 340 nm)
Assay type: biochemical
Details: 5 mM glucose, 2.5 mM ATP, pH 7.1, room temperature, values given as a range where N>1; for Emax: fitted % max activation, read-out: Maximum Activation
Description: Full-length glucokinase (beta cell isoform) was His-tagged at N-terminus and purified by a Ni column followed by size exclusion chromatography. A 320 mL column was packed in house using Pharmacia Superdex75 preparation grade resin. Glucose was obtained from Calbiochem (San Diego, Calif.) and other reagents were purchased from Sigma (St. Louis, Mo.).
All assays were performed in a Corning 384-well plate using Spectramax PLUS spectrophotometer (Molecular Devices, Sunnyvale, Calif.) at room temperature. The final assay volume was 40 μL. The buffer conditions used in this assay were as follows: 50 mM HEPES, 5 mM glucose, 2.5 mM ATP, 3.5 mM MgCl2, 0.7 mM NADH, 2 mM dithiothreitol, 1 Unit/mL PK/LDH, 0.2 mM phosphoenolpyruvate, and 25 mM KCl. The buffer pH was 7.1. The test compound in DMSO solution was added to the buffer and mixed by a plate shaker for 7.5 minutes. The final concentration of DMSO introduced into the assay was 0.25%.
Glucokinase was added to the buffer mixture to initiate the reaction in the presence and absence of compound. The reaction was monitored by absorbance at 340 nm due to the depletion of NADH. The initial reaction velocity was measured by the slope of a linear time course of 0-300 seconds. The percentage of activation was calculated by the following equation:
% Activation=(Va/Vo−1)×100;
wherein each of Va and Vo is defined as the initial reaction velocity in the presence and absence of the tested compound, respectively.
To determine the EC50 (half maximal effective concentration) and % maximum activation, compounds were serially diluted in DMSO by 3-fold. The GK activities were measured as a function of compound concentrations. The data were fitted to the equation below to obtain the EC50 and % max activation values:
Va/Vo=1+(% max activation/100)/(1+EC50/compound concentration)

Row | Emax | EC50 | SMILES
1 | 147% | 0.5 µM | O=C(O)c1ccc(NC(=O)[C@H](CC2CCCC2)n2cc(C(F)(F)F)ccc2=O)nc1 [Example 28, (S)-6-(3-cyclopentyl-2-(2-oxo-5-(trifluoromethyl)pyridin-1(2H)-yl)propanamido)nicotinic acid mono acetic acid salt]
2 | 58% | 4.2 µM | O=C(Nc1ccn(Cc2ccccc2)n1)[C@H](CC1CCCC1)n1ccc(C(F)(F)F)cc1=O [Example 30, (S)—N-(1-benzyl-1H-pyrazol-3-yl)-3-cyclopentyl-2-(2-oxo-4-(trifluoromethyl)pyridin-1(2H)-yl)propanamide]
3 | 172 to 194% | 1.1 to 2 µM | CC(C)(O)Cn1ccc(NC(=O)[C@H](CC2CCCC2)n2cc(C(F)(F)F)ccc2=O)n1 [Example 31, (S)-3-cyclopentyl-N-(1-(2-hydroxy-2-methylpropyl)-1H-pyrazol-3-yl)-2-(2-oxo-5-(trifluoromethyl)pyridin-1(2H)-yl)propanamide]
4 | 87 to 90% | 6.9 to 7.5 µM | CC(C)(O)Cn1ccc(NC(=O)[C@H](CC2CCCC2)n2ccc(C(F)(F)F)cc2=O)n1 [Example 32, (S)-3-cyclopentyl-N-(1-(2-hydroxy-2-methylpropyl)-1H-pyrazol-3-yl)-2-(2-oxo-4-(trifluoromethyl)pyridin-1(2H)-yl)propanamide]
5 | 85 to 159% | 0.3 to 0.5 µM | O=C(Nc1ccc(CO)cn1)[C@H](CC1CCCC1)n1cc(C(F)(F)F)ccc1=O [Example 33, (S)-3-cyclopentyl-N-(5-(hydroxymethyl)pyridin-2-yl)-2-(2-oxo-5-(trifluoromethyl)pyridin-1(2H)-yl)propanamide]
6 | 100 to 102% | 1.8 to 2.7 µM | O=C(O)c1ccc(NC(=O)[C@H](CC2CCCC2)n2ccc(C(F)(F)F)cc2=O)nc1 [Example 34, (S)-6-(3-cyclopentyl-2-(2-oxo-4-(trifluoromethyl)pyridin-1(2H)-yl)propanamido)nicotinic acid]
7 | 144% | 45 µM | Cc1cnc(NC(=O)[C@H](CC2CCCC2)n2cnc(C(F)F)cc2=O)cn1 [Example 35, (S)-3-cyclopentyl-2-(4-(difluoromethyl)-6-oxopyrimidin-1(6H)-yl)-N-(5-methylpyrazin-2-yl)propanamide]
8 | 106% | 8.1 µM | Cc1ccc(NC(=O)[C@H](CC2CCCC2)n2cnc(C(F)F)cc2=O)nc1 [Example 36, (S)-3-cyclopentyl-2-(4-(difluoromethyl)-6-oxopyrimidin-1(6H)-yl)-N-(5-methylpyridin-2-yl)propanamide]
9 | 92 to 101% | 1.5 to 3.5 µM | O=C(O)c1ccc(NC(=O)[C@H](CC2CCCCC2)n2ccc(C(F)(F)F)cc2=O)nc1 [Example 37, (S)-6-(3-cyclohexyl-2-(2-oxo-4-(trifluoromethyl)pyridin-1(2H)-yl)propanamido)nicotinic acid]
10 | 57 to 70% | 2.9 to 4.6 µM | Cc1ccc(NC(=O)[C@H](CC2CCOCC2)n2cc(C(F)(F)F)ccc2=O)nc1 [Example 38, (S)—N-(5-methylpyridin-2-yl)-2-(2-oxo-5-(trifluoromethyl)pyridin-1(2H)-yl)-3-(tetrahydro-2H-pyran-4-yl)propanamide]
11 |  | > 100 µM | Cc1cnc(NC(=O)[C@H](CC2CCOCC2)n2cc(C(F)(F)F)ccc2=O)cn1 [Example 39, (S)—N-(5-methylpyrazin-2-yl)-2-(2-oxo-5-(trifluoromethyl)pyridin-1(2H)-yl)-3-(tetrahydro-2H-pyran-4-yl)propanamide]
12 | 121% | 54 µM | Cn1ccc(NC(=O)[C@H](CC2CCOCC2)n2cc(C(F)(F)F)ccc2=O)n1 [Example 40, (S)—N-(1-methyl-1H-pyrazol-3-yl)-2-(2-oxo-5-(trifluoromethyl)pyridin-1(2H)-yl)-3-(tetrahydro-2H-pyran-4-yl)propanamide]
13 |  | > 100 µM | Cc1ccc(NC(=O)[C@H](CC2CCOCC2)n2ccc(C(F)(F)F)cc2=O)nc1 [Example 41, (S)—N-(5-methylpyridin-2-yl)-2-(2-oxo-4-(trifluoromethyl)pyridin-1(2H)-yl)-3-(tetrahydro-2H-pyran-4-yl)propanamide]
14 |  | > 100 µM | Cc1cnc(NC(=O)[C@H](CC2CCOCC2)n2ccc(C(F)(F)F)cc2=O)cn1 [Example 42, (S)—N-(5-methylpyrazin-2-yl)-2-(2-oxo-4-(trifluoromethyl)pyridin-1(2H)-yl)-3-(tetrahydro-2H-pyran-4-yl)propanamide]
15 |  | > 100 µM | Cn1ccc(NC(=O)[C@H](CC2CCOCC2)n2ccc(C(F)(F)F)cc2=O)n1 [Example 43, (S)—N-(1-methyl-1H-pyrazol-3-yl)-2-(2-oxo-4-(trifluoromethyl)pyridin-1(2H)-yl)-3-(tetrahydro-2H-pyran-4-yl)propanamide]

Row | SMILES | Emax | EC50
16 | CCOP(=O)(Cc1cnc(NC(=O)[C@H](CC2CCCC2)n2cc(C(F)(F)F)ccc2=O)cn1)OCC [Example 29, (S)-diethyl (5-(3-cyclopentyl-2-(2-oxo-5-(trifluoromethyl)pyridin-1(2H)-yl)propanamido)-pyrazin-2-yl)methylphosphonate] | 141% | 5.7 µM
